Experimental data as given in patent US7994329B2, “Growth hormone secretagogue receptor type 1A agonists” (Helsinn Therapeutics (U.S.), Inc., priority 2000, dated 2011).
Read-outs that look alike come from different tables or passages of the source. One block for each compound: values may come before it. No end group written: not given here.

Columns and labels:
food intake = assay: Food intake in non-deprived male Wistar rats (feeding boxes); assay type: in vivo, rat; conditions: 3 hours after injection
Description: Food intake was measured in feeding boxes with standard chow and water placed on balances connected to a computer. Changes in weight of chow and water were continuously registered. Food and water intake were measured for 3 hours after drug injection during early daytime, when food intake is normally at a very low level.
The effect on feeding was tested after icy injections in non-deprived male Wistar rats. The compounds were dissolved in 5 μl saline and injected in the following doses: 10.0 μg per rat (NNC 26-1291) and 30.0 μg per rat (NN703 and NNC 26-1187).
Food intake was measured in feeding boxes, where standard chow and water were placed on balances and changes in weight continuously registered. Food and water intake was measured for 3 hours after drug injection in the beginning of the light part of the diurnal cycle, when food intake is normally at a very low level. […] For comparison, food intake in control animals is normally about 1 gram, and icy administration of 10 μg porcine neuropeptide Y (NPY), which has a strong effect on food intake, increases food consumption to about 8 grams in this model.
Non-deprived male Wistar rats (n=6-10) were used for the study, dosed with vehicle or with ghrelin at 10 μg/rat icy dissolved in 5 μl saline. Food intake was measured in conscious animals, using feeding boxes. Food and water intake were measured for 3 hours after drug injection during early daytime, when food intake is normally at a very low level. GH release was measured in Halothane-anaesthetized animals from which blood samples were obtained, before dosing and 10 min after dosing, via the orbital plexus. The plasma was analyzed for rat GH.

GHS-R 1A = target: T1, GHS-R 1A (Homo sapiens, UniProt Q92847); assay: Receptor binding assay, membranes of BHK/GHS-R 1A cells
T1 construct: expressed in transfected cells; host or cells: BHK cells, stably transfected
T1 sequence (Q92847 whole entry): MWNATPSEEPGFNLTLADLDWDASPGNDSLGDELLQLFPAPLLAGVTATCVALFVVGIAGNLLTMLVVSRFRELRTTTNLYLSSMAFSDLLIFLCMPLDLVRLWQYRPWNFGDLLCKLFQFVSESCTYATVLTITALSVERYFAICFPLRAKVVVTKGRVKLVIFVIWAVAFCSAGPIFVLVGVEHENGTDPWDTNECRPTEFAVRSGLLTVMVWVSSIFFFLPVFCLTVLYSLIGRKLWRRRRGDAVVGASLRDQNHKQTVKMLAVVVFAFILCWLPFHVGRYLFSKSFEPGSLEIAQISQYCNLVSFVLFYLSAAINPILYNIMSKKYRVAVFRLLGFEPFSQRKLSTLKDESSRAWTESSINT
Description: Briefly, crude membranes from stably transfected BHK/GHS-R 1A cells were suspended at 0.5 mg protein/ml in homogenization buffer (25 mM Tris-base, 2.5 mM EDTA, 10 mM MgCl2 and 30 μg/ml bacitracin). […] The filters were subsequently washed in 0.9% NaCl and counted using an Optiphase™ ‘HiSafe 3’ counter (Wallac, Turku, Finland).
Specific binding was determined as the difference between total binding and non-specific binding (binding in the presence of 10 μM unlabelled ligand). Binding curves were generated using either the non-linear regression or hyperbolic fit feature of the GraphPad™ Prism software package (GraphPad, San Diego, Calif., U.S.A.).

GH release [1] = assay: GH release in anaesthetized rats (plasma rat GH); assay type: in vivo
Description: Blood samples were obtained from anaesthetized animals before dosing, and either 10 min after dosing or by frequent blood sampling through a catheter up until 45 min after dosing. The plasma was analyzed for rat GH.
Non-deprived male Wistar rats (n=6-10) were used for the study, dosed with vehicle or with ghrelin at 10 μg/rat icy dissolved in 5 μl saline. […] GH release was measured in Halothane-anaesthetized animals from which blood samples were obtained, before dosing and 10 min after dosing, via the orbital plexus. The plasma was analyzed for rat GH.

GH release [2] = conditions: cited from earlier work
rat pituitary cells = assay: GH secretion from rat pituitary cells; assay type: cell-based
[3] = read-out: Binding affinity to the GHS-R 1A (Ki)

- Ki (GHS-R 1A; [3]): 112 ± 29 nM
Compound: CNC(=O)[C@@H](Cc1ccccc1)N(C)C(=O)[C@@H](Cc1ccc2ccccc2c1)N(C)C(=O)/C=C/CC(C)(C)N [NN703]
- Food intake (food intake; 30.0 μg per rat icy): about 3 grams

Compound: CN(C)N(C)C(=O)C1(Cc2ccccc2)CCCN(C(=O)[C@@H](Cc2c[nH]c3ccccc23)NC(=O)C(C)(C)N)C1 (stereo partly drawn) [NNC 26-1291]
- Ki (GHS-R 1A): 0.4 ± 0.06 nM

Compound: ghrelin (GSSFLSPEHQRVQQRKESKKPPAKLQPR; ends and bridges not checked; UniProt Q9UBU3 24-51, looked up) [peptide described by Kojima in Nature (1999), vol; 402, 656-660, reference compound]
- Effect on food intake vs vehicle (food intake; 10 μg/rat icy): significant effect on feeding
- GH release after icy administration (GH release [1]; ghrelin 10 μg/rat icy, Halothane-anaesthetized male Wistar rats, 10 min after dosing): did not stimulate GH release
- GH release after iv administration (GH release [2]): causes stimulation of GH release

Compound: Nc1ncnc2c1ncn2[C@@H]1O[C@H](CO)[C@@H](O)[C@H]1O [Adenosine, adenosine]
- Effect on food intake vs vehicle (food intake; 1 μg/rat icy): no effect
- Effect on food intake vs vehicle (food intake; 10 μg/rat icy): food intake was significantly increased
- GH release after intravenous (iv) administration (GH release [1]; adenosine 1 mg/kg iv, also 10 mg/kg iv in pentobarbital anaesthetized female SD rats): did not stimulate GH release
- GH release after intracerebroventricular (icy) administration (GH release [1]; adenosine 10 and 100 μg/rat icy, Halothane anaesthetized male Wistar rats): did not stimulate GH release
- Stimulation of GH secretion from rat pituitary cells (rat pituitary cells): unable to stimulate GH secretion

- Ki (GHS-R 1A; [3]): 22.2 ± 7 nM
Compound: CN(CCc1ccccn1)C(=O)[C@@H](Cc1ccccc1)N(C)C(=O)[C@@H](Cc1ccc2ccccc2c1)N(C)C(=O)/C=C/CC(C)(C)N [NNC 26-1187]
